# In patent US8563714B2, “Bridged spiro [2.4] heptane derivatives as ALX receptor and/or FPRL2 agonists” (Actelion Pharmaceuticals Ltd., priority 2009, dated 2013):
# Tests used:
# [1] = target: T1, human FPRL2 (Homo sapiens, UniProt P25089); experiment: Intracellular calcium measurements (FLIPR), agonistic activity in HEK293-hFPRL2-Gα16 cells; format: cell-based; settings: Fluo-4 calcium FLIPR, normalized to GLY14-Humanin 100 nM
# T1 construct: expressed in transfected cells; host or cells: HEK293 (HEK293-hFPRL2-Gα16)
# T1 sequence (P25089 1-353): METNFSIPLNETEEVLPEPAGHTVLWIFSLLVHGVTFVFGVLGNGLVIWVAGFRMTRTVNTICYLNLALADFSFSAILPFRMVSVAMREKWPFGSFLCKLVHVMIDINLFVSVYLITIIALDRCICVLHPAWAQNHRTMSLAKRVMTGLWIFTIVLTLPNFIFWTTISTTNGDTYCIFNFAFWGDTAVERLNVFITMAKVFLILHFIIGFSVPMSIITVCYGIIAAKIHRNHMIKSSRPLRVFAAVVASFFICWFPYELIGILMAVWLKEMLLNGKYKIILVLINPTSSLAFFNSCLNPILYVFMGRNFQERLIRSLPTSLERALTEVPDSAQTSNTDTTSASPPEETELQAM
# In short: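 Peak values after baseline subtraction are expressed relative to 100 nM Gly14-Humanin; compounds diluted in assay buffer from 10 mM DMSO stocks.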
# [2] = target: T2, human ALX receptor (Homo sapiens, UniProt P25090); experiment: Intracellular calcium measurements (FLIPR), agonistic activity in HEK293-hALXR-Gα16 cells; format: cell-based; settings: Fluo-4 calcium FLIPR, normalized to WKYMVm 10 nM
# T2 construct: expressed in transfected cells; host or cells: HEK293 (HEK293-hALXR-Gα16)
# T2 sequence (P25090 1-351): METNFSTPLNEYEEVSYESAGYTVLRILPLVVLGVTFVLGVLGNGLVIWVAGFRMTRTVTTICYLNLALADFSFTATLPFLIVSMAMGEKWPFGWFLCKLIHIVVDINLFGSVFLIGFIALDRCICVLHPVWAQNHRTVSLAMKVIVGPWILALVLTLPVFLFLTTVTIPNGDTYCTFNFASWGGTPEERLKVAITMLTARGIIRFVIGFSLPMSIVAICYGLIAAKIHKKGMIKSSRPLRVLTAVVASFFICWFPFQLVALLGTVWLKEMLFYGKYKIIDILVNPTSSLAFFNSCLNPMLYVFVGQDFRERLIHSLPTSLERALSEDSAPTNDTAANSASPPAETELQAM
# In short: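 HEK293 cells expressing hALXR and Gα16 were loaded with 1 μM Fluo-4 AM and 20 mM HEPES for 60 min at 37°C, then exposed to serially diluted compound. FLIPR fluorescence was read at ex 488/em 540 nm. Baseline-subtracted peak responses were normalized to 10 nM WKYMVm.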
SMILES,EC50 [1] [µM],EC50 [2] [µM]
"Cc1nc(CC(=O)NC[C@H]2[C@H](C(=O)Nc3ccc(Br)cc3)[C@@H]3C=C[C@H]2C32CC2)cs1 (racemic) [Example 180, (5R*)—N^5-(4-Bromo-phenyl)-(6R*)-6-[(2-(2-methyl-thiazol-4-yl)-acetylamino)-methyl]-(4S*,7R*)-[4,7-ethenylene-spiro[2.4]heptane]-5-carboxamide]",0.888,0.252
"CN(C)CC(=O)NC[C@H]1[C@H](C(=O)Nc2ccc(Br)cc2)[C@@H]2C=C[C@H]1C21CC1 (racemic) [Example 181, (5R*)—N^5-(4-Bromo-phenyl)-(6R*)-6-[(2-(N,N-dimethyl-amino)-acetylamino)-methyl]-(4S*,7R*)-[4,7-ethenylene-spiro[2.4]heptane]-5-carboxamide]",2.05,0.265
"CN(C[C@H]1[C@H](C(=O)Nc2ccc(Br)cc2)[C@@H]2C=C[C@H]1C21CC1)C(=O)Cc1ccccc1Cl (racemic) [Example 182, (5R*)—N^5-(4-Bromo-phenyl)-(6R*)-6-{[N-(2-(2-chloro-phenyl)-acetyl)-N-methyl-amino]-methyl}-(4S*,7R*)-[4,7-ethenylene-spiro[2.4]heptane]-5-carboxamide]",2.02,0.298
"Cc1cc(C(=O)N(C)C[C@H]2[C@H](C(=O)Nc3ccc(Br)cc3)[C@@H]3C=C[C@H]2C32CC2)nn1C (racemic) [Example 183, (5R*)—N^5-(4-Bromo-phenyl)-(6R*)-6-{[N-(1,5-dimethyl-1H-pyrazole-3-carbonyl)-N-methyl-amino]-methyl}-(4S*,7R*)-[4,7-ethenylene-spiro[2.4]heptane]-5-carboxamide]",8.9,0.303
"O=C(CC1CC1)NC[C@H]1[C@H](C(=O)Nc2ccc(Br)cc2)[C@@H]2C=C[C@H]1C21CC1 (racemic) [Example 184, (5R*)—N^5-(4-Bromo-phenyl)-(6R*)-6-[(2-cyclopropyl-acetylamino)-methyl]-(4S*,7R*)-[4,7-ethenylene-spiro[2.4]heptane]-5-carboxamide]",> 14.5,0.315
"Cn1c(CCC(=O)NC[C@H]2[C@H](C(=O)Nc3ccc(Br)cc3)[C@@H]3C=C[C@H]2C32CC2)nc2ccccc21 (racemic) [Example 185, (5R*)—N^5-(4-Bromo-phenyl)-(6R*)-6-[(3-(1-methyl-1H-benzoimidazol-2-yl)-propionylamino)-methyl]-(4S*,7R*)-[4,7-ethenylene-spiro[2.4]heptane]-5-carboxamide]",0.709,0.336
"O=C(CCc1c[nH]c2ccccc12)NC[C@H]1[C@H](C(=O)Nc2ccc(Br)cc2)[C@@H]2C=C[C@H]1C21CC1 (racemic) [Example 186, (5R*)—N^5-(4-Bromo-phenyl)-(6R*)-6-[(3-1H-indol-3-yl-propionylamino)-methyl]-(4S*,7R*)-[4,7-ethenylene-spiro[2.4]heptane]-5-carboxamide]",8.96,0.463
"O=C(CCc1ccc(F)cc1)NC[C@H]1[C@H](C(=O)Nc2ccc(Br)cc2)[C@@H]2C=C[C@H]1C21CC1 (racemic) [Example 188, (5R*)—N^5-(4-Bromo-phenyl)-(6R*)-6-[(3-(4-fluoro-phenyl)-propionylamino)-methyl]-(4S*,7R*)-[4,7-ethenylene-spiro[2.4]heptane]-5-carboxamide]",1.92,0.529
"Cc1nn(C)c(Cl)c1C(=O)NC[C@H]1[C@H](C(=O)Nc2ccc(Br)cc2)[C@@H]2C=C[C@H]1C21CC1 (racemic) [Example 190, (5R*)—N^5-(4-Bromo-phenyl)-(6R*)-6-{[(5-chloro-1,3-dimethyl-1H-pyrazole-4-carbonyl)-amino]-methyl}-(4S*,7R*)-[4,7-ethenylene-spiro[2.4]heptane]-5-carboxamide]",1.7,0.963
"CC(=O)c1csc(CNC(=O)[C@H]2[C@H](C(=O)NCCCCN3CCCC3)[C@H]3C=C[C@@H]2C32CC2)n1 (racemic) [Example 191, (5R*)—N^5-(4-Acetyl-thiazol-2-yl-methyl)-(6R*)—N^6-(4-pyrrolidin-1-yl-butyl)-(4S*,7R*)-[4,7-ethenylene-spiro[2.4]heptane]-5,6-dicarboxamide]",0.826,0.14
"CC(=O)c1ccc(NC(=O)[C@H]2[C@H](C(=O)NCCCCN3CCCC3)[C@H]3C=C[C@@H]2C32CC2)cc1 (racemic) [Example 192, (5R*)—N^5-(4-Acetyl-phenyl)-(6R*)—N^6-(4-pyrrolidin-1-yl-butyl)-(4S*,7R*)-[4,7-ethenylene-spiro[2.4]heptane]-5,6-dicarboxamide]",0.139,0.023
"O=C(NCCCCN1CCCC1)[C@H]1[C@H](C(=O)Nc2ccc(C(F)(F)F)cc2)[C@@H]2C=C[C@H]1C21CC1 (racemic) [Example 197, (5R*)—N^5-(4-Trifluoromethyl-phenyl)-(6R*)—N^6-(4-pyrrolidin-1-yl-butyl)-(4S*,7R*)-[4,7-ethenylene-spiro[2.4]heptane]-5,6-dicarboxamide]",0.105,0.0054

# More lines, now with the values ahead:
EC50 [1] [µM],EC50 [2] [µM],SMILES
4.27,0.505,"CCCC(=O)NC[C@H]1[C@H](C(=O)Nc2ccc(Br)cc2)[C@@H]2C=C[C@H]1C21CC1 (racemic) [Example 187, (5R*)—N^5-(4-Bromo-phenyl)-(6R*)-6-[(butanoylamino)-methyl]-(4S*,7R*)-[4,7-ethenylene-spiro[2.4]heptane]-5-carboxamide]"
3.24,0.697,"O=C(C=Cc1ccccc1)NC[C@H]1[C@H](C(=O)Nc2ccc(Br)cc2)[C@@H]2C=C[C@H]1C21CC1 (racemic) [Example 189, (5R*)—N^5-(4-Bromo-phenyl)-(6R*)-6-[(3-phenyl-acryloylamino)-methyl]-(4S*,7R*)-[4,7-ethenylene-spiro[2.4]heptane]-5-carboxamide]"
0.355,0.463,"Cc1cnc(NC(=O)[C@H]2[C@H](C(=O)NCCCCN3CCCC3)[C@H]3C=C[C@@H]2C32CC2)s1 (racemic) [Example 193, (5R*)—N^5-(5-Methyl-thiazol-2-yl)-(6R*)—N^6-(4-pyrrolidin-1-yl-butyl)-(4S*,7R*)-[4,7-ethenylene-spiro[2.4]heptane]-5,6-dicarboxamide]"
0.436,0.223,"CC(=O)c1ccc(CNC(=O)[C@H]2[C@H](C(=O)NCCCCN3CCCC3)[C@H]3C=C[C@@H]2C32CC2)s1 (racemic) [Example 194, (5R*)—N^5-(5-Acetyl-thiophen-2-yl-methyl)-(6R*)—N^6-(4-pyrrolidin-1-yl-butyl)-(4S*,7R*)-[4,7-ethenylene-spiro[2.4]heptane]-5,6-dicarboxamide]"
0.462,0.092,"CC(=O)c1ncc(CNC(=O)[C@H]2[C@H](C(=O)NCCCCN3CCCC3)[C@H]3C=C[C@@H]2C32CC2)o1 (racemic) [Example 198, (5R*)—N^5-(2-Acetyl-oxazol-5-yl-methyl)-(6R*)—N^6-(4-pyrrolidin-1-yl-butyl)-(4S*,7R*)-[4,7-ethenylene-spiro[2.4]heptane]-5,6-dicarboxamide]"
